Converted amounts (≈) assume the structure as drawn. Like-named read-outs stand apart in the source and are kept apart here.
Legend:
E. faecium ATCC 35667 = assay: In vitro antibacterial evaluation, MIC by agar dilution, E. faecium ATCC 35667; assay type: cell-based; details: Enterococcus faecium, ATCC35667, read-out: MIC
Procedure, shortened: (§1)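 Two-fold dilutions of test compound, 128 μg/mL down to ≤0.25 μg/mL, were set in Mueller-Hinton agar in duplicate and spot-inoculated with about 10^4 cfu of log-phase culture. Plates were incubated 16-20 hours at 35°-36° C, and MIC taken as the lowest concentration inhibiting growth, following NCCLS agar dilution.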

[1] = system: S. aureus 76 (Meth^R)(lac^+); assay: In vitro antibacterial evaluation, MIC by agar dilution, S. aureus 76; assay type: cell-based; details: Staphylococcus aureus, read-out: MIC
Procedure, shortened: as §1

E. coli ATCC 25922 = assay: In vitro antibacterial evaluation, MIC by agar dilution, E. coli ATCC 25922; assay type: cell-based; details: Escherichia coli, ATCC25922, read-out: MIC
Procedure, shortened: as §1

[2] = system: S. aureus Col (Meth^R)(lac^-); assay: In vitro antibacterial evaluation, MIC by agar dilution, S. aureus Col; assay type: cell-based; details: S. aureus Col
Experimental: (§2) The compounds of the invention were evaluated against several β-lactamresistant bacteria strains by determining the minimum inhibitory concentration (MIC, μg/ml) of each compound with respect to each strain. The MIC, the lowest concentration of antibiotic which inhibits growth of the test organism, was determined by the agar dilution method.
(§3) To determine the MIC for bacterial isolates, the test compound was incorporated in a series of two-fold dilutions into liquified Mueller-Hinton agar. Upon solidification, a number of different bacterial strains were spot inoculated with a replicating device onto the agar surface. […] The procedures used in these studies have been standardized by the National Committee for Clinical Laboratory Standards (NCCLS), as per the NCCLS publication entitled METHODS FOR DILUTION ANTIMICROBIAL SUSCEPTIBILITY TESTS (1991), which is incorporated herein by reference.
(§4) Aliquots of antimicrobial agents were prepared in phosphate buffered saline (PBS) at pH 7.2. Tween 20 or DMSO was used as a solubilizing vehicle as needed. Standard methods of vortexing, sonicating and gentle heat were used to facilitate solubilizing the test agent. Typically, the concentration of the stock solution was 10× that of the highest drug concentration tested. A 1.28 mg/mL stock solution was used with a subsequent highest working concentration of 128 μg/mL. Serial two-fold dilutions were done through ≤0.25 μg/mL. Each drug level was tested in duplicate. Two-fold drug dilutions were done in sterile 50 mL tubes with a final drug volume of 5 mL. Upon the addition of 45 mL of molten agar, a 10-fold dilution resulted. Two, 25 mL. plates were then poured into 15×150 mm square Petri plates with grids and allowed to harden.
(§5) A control plate with a reference drug, either cefotaxime, vancomycin or imipenem, was used as the positive growth control. Stock concentrations of reference antibiotics were prepared and frozen at -80° C. Upon preparation, the control plates were sealed and stored in the refrigerator for up to 1 week prior to use; however, imipenem control plates had to be prepared just prior to use. All test plates were used within 24 hours of preparation.
(§6) Satisfactory results were obtained where the inoculum contained about 10^4 colony forming units (cfu) ±0.5 logs. Starting with pure cultures of the test isolates on agar plates, a few isolated colonies were transferred to a tube of nutrient broth and allowed to grow 4-6 hours at 35°-36° C. to reach log-phase growth. Dropwise addition of the broth culture to PBS was done to match a 0.5 McFarland turbidity standard equal to 10^8 cfu/mL. This was further diluted ten-fold in PBS to reach a working inoculum concentration of 10^7 cfu/mL. When 1 μL of the working inoculum was applied to the agar surface a concentration of about 10^4 cfu per spot was obtained.
(§7) Disposable sterile 1 μL loops were used to inoculate test plates, with each isolate in a designated grid on the agar plate. An alternate method of inoculation involved the use of a replica plater, a device with 48 steel pins allowing the simultaneous inoculation of multiple isolates. After the spots had dried, the plates were incubated at 35°-36° C. for 16-20 hours. Endpoints were assessed as the minimum inhibitory concentration (MIC) of antimicrobial agent.
The novel agents of this invention are notable for their enhanced activity against S. aureus Col and Enterococci (E. faecium and E. faecalis). […]

[3] = system: S. aureus Col8A (Meth^S)(lac^-); assay: In vitro antibacterial evaluation, MIC by agar dilution, S. aureus Col8A; assay type: cell-based; details: Staphylococcus aureus
Procedure, shortened: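 Agar dilution per NCCLS (1991): two-fold dilutions from 128 μg/mL down to ≤0.25 μg/mL in Mueller-Hinton agar, each level in duplicate. Spots of about 10^4 cfu of log-phase culture; 16-20 h at 35°-36° C. MIC in μg/ml is the lowest concentration inhibiting growth.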

[4] = system: S. epidermidis ATCC 31432; assay: In vitro antibacterial evaluation, MIC by agar dilution, S. epidermidis ATCC 31432; assay type: cell-based; details: Staphylococcus epidermidis, ATCC31432; S. epidermidis ATCC 31432; read-out: MIC
Procedure, shortened: as §1

S. haemolyticus (Meth^R) = assay: In vitro antibacterial evaluation, MIC by agar dilution, S. haemolyticus; assay type: cell-based; details: Staphylococcus haemolyticus, read-out: MIC
Procedure, shortened: as §1

P. aeruginosa ATCC 27853 = assay: In vitro antibacterial evaluation, MIC by agar dilution, P. aeruginosa ATCC 27853; assay type: cell-based; details: Pseudomonas aeruginosa, ATCC27853, read-out: MIC
Procedure, shortened: as §1

[5] = system: X. maltophilia ATCC 13637; assay: In vitro antibacterial evaluation, MIC by agar dilution, X. maltophilia ATCC 13637; assay type: cell-based; details: Stenotrophomonas maltophilia, ATCC13637
Experimental: as §2, §3, §4, §5, §6, §7

S. aureus ATCC 25923 = assay: In vitro antibacterial evaluation, MIC by agar dilution, S. aureus ATCC 25923; assay type: cell-based; details: Staphylococcus aureus, ATCC25923; S. aureus ATCC 25923; read-out: MIC
Procedure, shortened: as §1

E. faecalis ATCC 29212 = assay: In vitro antibacterial evaluation, MIC by agar dilution, E. faecalis ATCC 29212; assay type: cell-based; details: Enterococcus faecalis, ATCC29212; E. faecalis ATCC 29212; read-out: MIC
Procedure, shortened: as §1

S. aureus ATCC 29213 = assay: In vitro antibacterial evaluation, MIC by agar dilution, S. aureus ATCC 29213; assay type: cell-based; details: Staphylococcus aureus, ATCC29213
Procedure, shortened: as §1

[6] = system: Enterococci (E. faecium and E. faecalis); assay: In vitro antibacterial evaluation, Enterococci (E. faecium and E. faecalis); assay type: cell-based
Experimental: as §2, §3
Aliquots of antimicrobial agents were prepared in phosphate buffered saline (PBS) at pH 7.2. Tween 20 or DMSO was used as a solubilizing vehicle as needed. Standard methods of vortexing, sonicating and gentle heat were used to facilitate solubilizing the test agent. […]
Disposable sterile 1 μL loops were used to inoculate test plates, with each isolate in a designated grid on the agar plate. […] Endpoints were assessed as the minimum inhibitory concentration (MIC) of antimicrobial agent. […]

MRSA strains = details: background art; cited from earlier work

Row | SMILES | MIC (E. faecium ATCC 35667) | MIC [1] | MIC (E. coli ATCC 25922) | activity against S. aureus Col, S. aureus Col 8A and Enterococci ([2]; S. aureus Col 8A, Enterococci) | MIC [3] | MIC [4] | MIC (S. haemolyticus (Meth^R)) | MIC (P. aeruginosa ATCC 27853) | MIC [5] | MIC (S. aureus ATCC 25923) | MIC (E. faecalis ATCC 29212) | MIC (S. aureus ATCC 29213) | activity against S. aureus Col [2] | activity against enterococci [6] | MIC (S. aureus ATCC 29213; S. aureus ATCC 29213, read-out: MIC) | activity against MRSA strains (MRSA strains)
1 | O=C(Cc1ccccc1)N[C@@H]1C(=O)N2C(C(=O)O)=C(Sc3ccccc3-c3ccccc3)CS[C@H]12 [Cmpd 9, (7R)-7-((Phenylacetyl)amino]-3-(2-biphenylthio)-3-cephem-4-carboxylic acid] | 2 µg/mL (≈ 3.98 µM) | 8 µg/mL (≈ 15.9 µM) | > 32 µg/mL | broad activity against both S. aureus Col and S. aureus Col 8A, as well as Enterococci | 0.25 µg/mL (≈ 0.497 µM) | 0.125 µg/mL (≈ 0.249 µM) | 0.125 µg/mL (≈ 0.249 µM) | > 32 µg/mL | > 32 µg/mL | 0.125 µg/mL (≈ 0.249 µM) | 4 µg/mL (≈ 7.96 µM) | 0.25 µg/mL (≈ 0.497 µM) | – | – | – | –
2 | O=C(Cc1ccccc1)N[C@@H]1C(=O)N2C(C(=O)O)=C(SCc3ccc(-c4ccccc4)cc3)CS[C@H]12 [Cmpd 12, (7R)-7-[(Phenylacetyl)amino]-3-(4-biphenylmethylthio)-3-cephem-4-carboxylic acid] | – | – | > 32 µg/mL | – | < 0.06 µg/mL | < 0.06 µg/mL | – | > 32 µg/mL | > 32 µg/mL | < 0.06 µg/mL | 4 µg/mL (≈ 7.74 µM) | – | lacking activity against S. aureus Col | potent activity against enterococci | < 0.06 µg/mL | –
3 | C[C@@H](O)[C@H]1C(=O)N2C(C(=O)O)=C(SCCN=CN)C[C@H]12 [imipenem] | – | – | – | – | – | – | – | – | – | – | – | – | – | – | – | active against a few MRSA strains
